Where two headings read alike, the source gives them in different places.
Tests used:
[1] = system: RPE1 (normal human immortalized retinal pigment epithelial cell line); assay: MTT toxicity towards normal cells, RPE1; assay type: cell-based; conditions: RPE-1, read-out: IC50 (µM) ± SEM RPE1
Method: The safety of the synthesized agents against non-cancer/normal RPE1 (retinal pigment epithelium) cell line was assessed (Table 1, Supplementary Fig. S52). The SI (selectivity index) for the tested compounds against RPE1 cell line confirms the safety towards non-cancer cells. […] Compound 6d and 6h which are also of high anti-PaCa2 show remarkable SI values (SI = > 3.8, > 3.6, respectively).
The agents synthesized were also tested against RPE1 (normal human immortalized retinal pigment epithelial cell line) cell (in DMEM-F12 medium) to determine the toxicity/selectivity towards normal cells relative to the cancer cell lines utilized.
(§1) Statistical calculations for determination of the mean and standard error mean values were determined by SPSS 16 software. The observed anti-proliferative properties are presented in Table 1 (Supplementary Figs. S48‒S52).

[2] = MTT cytotoxicity assay (CC50); assay type: cell-based; conditions: African green monkey, VERO-E6 cells
Method: The cytotoxic activity of the compounds was tested in VERO-E6 cells by using the 3-(4,5-dimethylthiazol-2-yl)-2,5-diphenyltetrazolium bromide (MTT) method with minor modifications. Briefly, the cells were seeded in 96 well-plates […] at a density of 3 x 10^5 cell/ml and incubated for 24 h at 37 °C in 5% CO2. After 24 h, cells were treated with various concentrated of the tested compounds in triplicates. 24 h later, the supernatant was discarded and cell monolayers were washed with sterile 1x phosphate buffer saline (PBS) 3 times and MTT solution (20 µl of 5 mg/ml) was added to each well and incubated at 37 °C for 4 h followed by medium aspiration. In each well, the formed formazan crystals were dissolved with 200 µl of acidified isopropanol (0.04 M HCl in absolute isopropanol = 0.073 ml HCl in 50 ml isopropanol). Eventually, the absorbance was measured at λmax 570 nm using the Anthos Zenyth 200rt plate reader (Anthos Labtec Instruments, Heerhugowaard, Netherlands). The cytotoxicity of various concentrations compared to the untreated cells was determined using nonlinear regression analysis by plotting log inhibitor versus normalized response.^12^-14

[3] = system: SARS-CoV-2 (hCoV-19/Egypt/NRC-03/2020); assay: Vero-E6 cell viral infection model, anti-SARS-CoV-2 IC50 (CPE, crystal violet); assay type: cell-based; conditions: for IC50: Severe acute respiratory syndrome coronavirus 2, Vero C1008; for SI = CC50/IC50: Vero-E6, SARS-CoV-2
BChE = BChE (Homo sapiens, UniProt P06276); assay: BChE inhibition (DTNB, butyrylthiocholine iodide)
[4] = system: PaCa2 (pancreatic) cancer cell line; assay: MTT antiproliferation, PaCa-2; assay type: cell-based, human; conditions: for IC50: Homo sapiens, read-out: IC50 (µM) ± SEM PaCa-2; for SI (selectivity index) PaCa-2: IC50 of RPE1/IC50 of cancer cell line
Method: (§2) Antiproliferation properties of the targeted agents were investigated by the standard MTT technique against diverse human cancer cell lines [MCF7 (breast), HCT116 (colon), A431 (skin squamous) and PaCa2 (pancreatic)][67] (Table 1, Supplementary Figs. S48‒S51).
Cells were suspended in DMEM medium for MCF7, A431, PaCa-2 and McCoy’s 5A for HCT116 in addition to 1% antibiotic–antimycotic mixture (10000 μg ml^-1 potassium penicillin, 10000 μg ml^-1 streptomycin sulfate and 25 μg ml^-1 amphotericin B), 10% fetal bovine serum and 1% L-glutamine at 37 °C, under 5% CO2 and 95% humidity. Cells were seeded at concentration of 30000 cells per well in fresh complete growth medium in 96-well tissue culture microtiter plates for 24 h. Media was aspirated, fresh complete medium was added and cells were incubated with different concentrations of the tested compound to give a final concentration of [50, 25, 12.5 and 6.25 μM “in addition to 3.125, 1.56 and 0.78 μM in case of high potent analogues”). 0.5% DMSO was used as negative control. Triplicate wells were prepared for each individual dose. After 72 h of incubation, medium was aspirated, 40 μl MTT salt (2.5 mg ml^-1) was added to each well and incubated for further 4 h at 37 °C. To stop the reaction and dissolve the formed crystals, 150 μl of 10% sodium dodecyl sulfate (SDS) in deionized water was added to each well and incubated overnight at 37 °C. The absorbance was then measured at 570 nm and a reference wavelength of 595 nm.
(§3) Data were collected as mean values for experiments performed in triplicates for each individual dose which had been measured by MTT assay. […] The cell surviving fraction was calculated according to the following equation.
(§4) Surviving fraction = OpticaldensityO.D.oftreatedcellsO.D.ofcontrolcells
as §1

[5] = system: MCF7 (breast) cancer cell line; assay: MTT antiproliferation, MCF7; assay type: cell-based, human; conditions: for IC50: Homo sapiens, MCF7, 72 h, read-out: IC50 (µM) ± SEM MCF7; for SI (selectivity index) MCF7: IC50 of RPE1/IC50 of cancer cell line
Method: as §2
(§5) Cells were seeded at concentration of 30000 cells per well in fresh complete growth medium in 96-well tissue culture microtiter plates for 24 h. […] 0.5% DMSO was used as negative control. Triplicate wells were prepared for each individual dose. After 72 h of incubation, medium was aspirated, 40 μl MTT salt (2.5 mg ml^-1) was added to each well and incubated for further 4 h at 37 °C. To stop the reaction and dissolve the formed crystals, 150 μl of 10% sodium dodecyl sulfate (SDS) in deionized water was added to each well and incubated overnight at 37 °C.
as §3, §4
(§6) Statistical calculations for determination of the mean and standard error mean values were determined by SPSS 16 software.

VEGFR-2 = biological target: T1, VEGFR-2 (Homo sapiens, UniProt P35968); assay type: cell-based; conditions: western blot, MCF7, compound at its MTT IC50; for VEGFR-2 RQ (relative quantification): control RQ 3.2634
T1 construct: Western blot technique was considered for EGFR and VEGFR-2 properties determination; endogenous in cells; host or cells: MCF7 (breast cancer cell line)
Source text: (§7) The western blot technique was applied utilizing the IC50 observed for each respective agent synthesized during MTT assay[85],[86]. Consideration of multi-targeted inhibitory properties investigation is based in the fact that cancer initiation and proliferation sometimes utilizes many receptors or signaling pathways.
(§8) Western blot technique was considered for EGFR and VEGFR-2 properties determination utilizing the IC50 observed of each respective agent synthesized during MTT assay against MCF7 (breast) cancer cell line. All the studies were conducted according to the manufacturer’s instruction.^10,^11

EGFR = biological target: T2, EGFR (Homo sapiens, UniProt P00533); assay type: cell-based; conditions: western blot, MCF7, compound at its MTT IC50; for EGFR RQ (relative quantification): control RQ 3.4461
T2 construct: Western blot technique was considered for EGFR and VEGFR-2 properties determination; endogenous in cells; host or cells: MCF7 (breast cancer cell line)
Source text: as §7, §8

[6] = system: HCT116 (colon) cancer cell line; assay: MTT antiproliferation, HCT116; assay type: cell-based, human; conditions: for IC50: Homo sapiens, HCT-116, 72 h, read-out: IC50 (µM) ± SEM HCT116; for SI (selectivity index) HCT116: IC50 of RPE1/IC50 of cancer cell line
Method: as §2, §5, §3, §4, §6

[7] = system: A431 (skin squamous) cancer cell line; assay: MTT antiproliferation, A431; assay type: cell-based, human; conditions: for IC50: Homo sapiens; for SI (selectivity index) A431: IC50 of RPE1/IC50 of cancer cell line
Method: as §2, §5, §3, §4, §6

AChE = AChE (Homo sapiens, UniProt P22303); assay: AChE inhibition (DTNB, acetylthiocholine); assay type: biochemical; conditions: for IC50: read-out: AChE (IC50, μM) ± SD
Method: All compounds were dissolved in MeOH.

[8] = Vero-E6, 72 h, reduction of virus-induced CPE, read-out: IC50 (µM) SARS-CoV-2
[9] = log of observed IC50 in μM, read-out: Observed log(IC50, μM) (SARS-CoV-2) (converted)
[10] = A-431, 72 h, read-out: IC50 (µM) ± SEM A431
[11] = A-431, read-out: Observed log(IC50, μM) (A431) (converted)

BChE, sequence (P06276 29-602, species assumed): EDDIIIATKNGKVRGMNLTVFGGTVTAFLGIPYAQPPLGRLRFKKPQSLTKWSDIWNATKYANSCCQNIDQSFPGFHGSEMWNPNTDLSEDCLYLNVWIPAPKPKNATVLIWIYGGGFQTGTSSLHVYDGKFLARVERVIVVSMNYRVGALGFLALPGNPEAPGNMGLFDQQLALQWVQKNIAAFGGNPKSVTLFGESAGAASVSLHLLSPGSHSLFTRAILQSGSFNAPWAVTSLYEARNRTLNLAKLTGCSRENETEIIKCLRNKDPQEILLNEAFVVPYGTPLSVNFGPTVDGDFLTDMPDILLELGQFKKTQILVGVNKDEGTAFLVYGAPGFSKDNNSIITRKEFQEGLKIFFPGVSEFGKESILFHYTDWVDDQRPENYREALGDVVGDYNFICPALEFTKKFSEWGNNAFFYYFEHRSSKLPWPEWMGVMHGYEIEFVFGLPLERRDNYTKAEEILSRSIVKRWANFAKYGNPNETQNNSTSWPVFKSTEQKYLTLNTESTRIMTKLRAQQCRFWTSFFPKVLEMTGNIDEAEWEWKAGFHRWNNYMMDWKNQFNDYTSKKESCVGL
AChE, sequence (P22303 32-614): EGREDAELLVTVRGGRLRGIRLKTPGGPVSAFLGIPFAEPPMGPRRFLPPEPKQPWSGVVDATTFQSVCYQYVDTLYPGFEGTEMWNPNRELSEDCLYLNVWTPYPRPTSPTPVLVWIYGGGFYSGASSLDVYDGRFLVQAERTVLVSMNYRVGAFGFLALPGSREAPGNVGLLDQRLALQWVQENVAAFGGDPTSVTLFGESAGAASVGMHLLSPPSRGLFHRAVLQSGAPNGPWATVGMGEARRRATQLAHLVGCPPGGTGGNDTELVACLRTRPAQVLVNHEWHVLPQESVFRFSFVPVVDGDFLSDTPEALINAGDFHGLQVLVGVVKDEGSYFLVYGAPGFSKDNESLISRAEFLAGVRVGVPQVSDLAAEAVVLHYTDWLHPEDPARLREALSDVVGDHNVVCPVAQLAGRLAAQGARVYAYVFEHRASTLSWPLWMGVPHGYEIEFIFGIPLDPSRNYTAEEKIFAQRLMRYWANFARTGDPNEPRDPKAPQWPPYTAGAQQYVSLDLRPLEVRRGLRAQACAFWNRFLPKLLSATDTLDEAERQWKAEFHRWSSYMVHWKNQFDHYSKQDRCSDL
T1 sequence (P35968 20-1356): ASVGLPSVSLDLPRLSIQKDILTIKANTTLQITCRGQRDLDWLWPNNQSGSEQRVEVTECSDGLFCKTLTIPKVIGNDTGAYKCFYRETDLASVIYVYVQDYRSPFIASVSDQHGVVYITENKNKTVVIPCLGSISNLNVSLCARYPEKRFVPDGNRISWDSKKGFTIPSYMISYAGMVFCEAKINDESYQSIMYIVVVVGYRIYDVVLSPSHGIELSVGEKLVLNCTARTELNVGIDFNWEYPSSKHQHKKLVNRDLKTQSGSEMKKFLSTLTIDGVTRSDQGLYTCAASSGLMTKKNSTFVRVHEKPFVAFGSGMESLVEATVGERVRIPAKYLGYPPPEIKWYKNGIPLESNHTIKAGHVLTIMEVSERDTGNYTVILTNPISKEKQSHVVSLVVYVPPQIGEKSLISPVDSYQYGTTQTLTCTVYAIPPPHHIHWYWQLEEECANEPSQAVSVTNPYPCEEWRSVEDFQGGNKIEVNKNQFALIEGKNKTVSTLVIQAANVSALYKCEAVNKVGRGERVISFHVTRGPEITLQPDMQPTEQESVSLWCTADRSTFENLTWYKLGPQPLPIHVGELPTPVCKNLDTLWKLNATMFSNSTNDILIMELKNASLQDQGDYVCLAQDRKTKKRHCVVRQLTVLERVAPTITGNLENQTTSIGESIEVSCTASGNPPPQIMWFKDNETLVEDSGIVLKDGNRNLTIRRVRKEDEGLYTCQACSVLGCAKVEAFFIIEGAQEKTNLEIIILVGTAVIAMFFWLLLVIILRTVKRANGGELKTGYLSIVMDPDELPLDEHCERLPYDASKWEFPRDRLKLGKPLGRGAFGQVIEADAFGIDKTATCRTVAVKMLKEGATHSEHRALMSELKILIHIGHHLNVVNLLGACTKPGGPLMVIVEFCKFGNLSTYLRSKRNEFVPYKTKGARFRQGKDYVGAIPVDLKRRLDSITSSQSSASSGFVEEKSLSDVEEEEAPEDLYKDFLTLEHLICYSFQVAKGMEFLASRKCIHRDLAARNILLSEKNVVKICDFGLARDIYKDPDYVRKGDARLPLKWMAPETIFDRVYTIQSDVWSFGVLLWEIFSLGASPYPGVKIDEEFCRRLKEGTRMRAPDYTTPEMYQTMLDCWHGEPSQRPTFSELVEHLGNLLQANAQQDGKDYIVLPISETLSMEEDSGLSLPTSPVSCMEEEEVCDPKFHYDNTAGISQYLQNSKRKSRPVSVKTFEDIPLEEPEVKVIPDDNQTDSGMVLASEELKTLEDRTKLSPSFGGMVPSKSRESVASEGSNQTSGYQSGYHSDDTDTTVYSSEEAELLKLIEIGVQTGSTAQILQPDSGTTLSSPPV
T2 sequence (P00533 25-1210): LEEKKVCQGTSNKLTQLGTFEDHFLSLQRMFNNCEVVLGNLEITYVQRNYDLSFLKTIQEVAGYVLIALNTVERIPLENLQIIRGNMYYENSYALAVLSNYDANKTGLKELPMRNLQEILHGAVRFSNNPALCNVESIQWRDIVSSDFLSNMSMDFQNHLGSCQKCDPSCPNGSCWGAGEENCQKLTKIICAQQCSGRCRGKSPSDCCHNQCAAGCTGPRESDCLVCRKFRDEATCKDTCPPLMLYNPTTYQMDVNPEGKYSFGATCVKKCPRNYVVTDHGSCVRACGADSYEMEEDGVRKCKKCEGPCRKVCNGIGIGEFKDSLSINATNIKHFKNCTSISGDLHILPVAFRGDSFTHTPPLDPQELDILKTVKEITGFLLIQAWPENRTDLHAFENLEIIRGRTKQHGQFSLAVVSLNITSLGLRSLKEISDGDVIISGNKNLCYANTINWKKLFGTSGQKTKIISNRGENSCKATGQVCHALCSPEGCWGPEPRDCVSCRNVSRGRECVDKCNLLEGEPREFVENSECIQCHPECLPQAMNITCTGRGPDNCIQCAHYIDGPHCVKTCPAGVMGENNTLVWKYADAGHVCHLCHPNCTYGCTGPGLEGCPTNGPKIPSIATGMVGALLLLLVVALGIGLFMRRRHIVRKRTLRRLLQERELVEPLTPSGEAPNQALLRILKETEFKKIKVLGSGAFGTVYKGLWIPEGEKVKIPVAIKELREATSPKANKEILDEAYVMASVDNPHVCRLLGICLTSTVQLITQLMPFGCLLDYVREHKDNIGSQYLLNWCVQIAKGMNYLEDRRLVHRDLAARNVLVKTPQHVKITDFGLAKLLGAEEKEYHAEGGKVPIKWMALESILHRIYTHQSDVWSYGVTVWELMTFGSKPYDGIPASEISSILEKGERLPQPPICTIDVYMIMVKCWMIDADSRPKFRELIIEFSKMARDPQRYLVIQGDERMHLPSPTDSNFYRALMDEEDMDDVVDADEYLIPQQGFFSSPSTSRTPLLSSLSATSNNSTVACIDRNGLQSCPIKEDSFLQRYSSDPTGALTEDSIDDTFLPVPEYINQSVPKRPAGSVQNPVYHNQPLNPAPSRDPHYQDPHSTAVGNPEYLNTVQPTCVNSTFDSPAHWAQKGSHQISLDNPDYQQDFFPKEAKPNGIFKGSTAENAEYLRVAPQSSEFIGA

Compound | IC50 [1] [µM] | CC50 at 24 h [2] [µM] | IC50 [3, 8] [µM] | IC50 [3, 9] [µM] | SI = CC50/IC50 [3] | IC50 (BChE) [µM] | IC50 ([4]; PaCa-2, 72 h) [µM] | IC50 [5] [µM] | SI (selectivity index) MCF7 [5] | VEGFR-2 % Inhibition (VEGFR-2) [%] | VEGFR-2 RQ (relative quantification) (VEGFR-2) | EGFR % Inhibition (EGFR) [%] | EGFR RQ (relative quantification) (EGFR) | IC50 [6] [µM] | SI (selectivity index) HCT116 [6] | IC50 [7, 10] [µM] | IC50 [7, 11] [µM] | SI (selectivity index) A431 [7] | SI = IC50 (AChE)/IC50 (BChE) (AChE) | IC50 (AChE) [µM] | further results
COc1ccc(/C=C2\CN(S(C)(=O)=O)CC3(C2=O)C(c2ccc(OC)c(OC)c2)CN(C)C32C(=O)Nc3ccc(Cl)cc32)cc1OC (stereo not shown) [Compound 6o, (E)-5-Chloro-5″-(3,4-dimethoxybenzylidene)-4′-(3,4-dimethoxyphenyl)-1′-methyl-1″-(methylsulfonyl)dispiro[indoline-3,2′-pyrrolidine-3′,3″-piperidine]-2,4″-dione] | > 50 | 196 | 88.2 | 88.2 | 2.2 | 24.9 ± 4.6 | > 50 | 48.9 ± 1.84 | > 1.0 | 61.8 | 1.2473 | 65.9 | 1.175 | 28.5 ± 0.75 | > 1.8 | 45.4 ± 1.84 | 45.4 | > 1.1 | 1.1 | 27 ± 6.7 | 
CN1CC(c2ccc(Cl)cc2)C2(CN(S(C)(=O)=O)C/C(=C\c3ccc(Cl)cc3)C2=O)C12C(=O)Nc1ccc(Cl)cc12 (stereo not shown) [Compound 6j, (E)-5-Chloro-5″-(4-chlorobenzylidene)-4′-(4-chlorophenyl)-1′-methyl-1″-(methylsulfonyl)dispiro[indoline-3,2′-pyrrolidine-3′,3″-piperidine]-2,4″-dione] | 12.5 ± 0.86 | 201 | 27.1 | 27.1 | 7.4 | 22.3 ± 3.33 | 8.83 ± 0.51 | 4.51 ± 0.39 | 2.8 | 57.9 | 1.3745 | 63.3 | 1.2634 | 4.72 ± 0.25 | 2.6 | 4.08 ± 0.21 | 4.08 | 3.1 | 1.9 | 42.8 ± 4.61 | SI (selectivity index) PaCa-2 [4]: 1.4
CCS(=O)(=O)N1C/C(=C\c2ccccc2)C(=O)C2(C1)C(c1ccccc1)CN(C)C21C(=O)Nc2ccccc21 (stereo not shown) [Compound 6c, (E)-5″-Benzylidene-1″-(ethylsulfonyl)-1′-methyl-4′-phenyldispiro[indoline-3,2′-pyrrolidine-3′,3″-piperidine]-2,4″-dione] | > 50 | 5700 | 103 | 103 | 55.5 | 65.4 ± 2.42 | > 50 | > 50 |  | 63.8 | 1.18 | 69.6 | 1.0493 | 6.12 ± 0.44 | > 8.2 | 33.2 ± 0.91 | 33.2 | > 1.5 | 1.2 | 78 ± 3.26 | 
CN1CC(c2ccccc2)C2(CN(S(C)(=O)=O)C/C(=C\c3ccccc3)C2=O)C12C(=O)Nc1ccc(Cl)cc12 (stereo not shown) [Compound 6b, (E)-5″-Benzylidene-5-chloro-1′-methyl-1″-(methylsulfonyl)-4′-phenyldispiro[indoline-3,2′-pyrrolidine-3′,3″-piperidine]-2,4″-dione] | 24.7 ± 1.26 | 1270 | 9.63 | 9.63 | 132.0 | 29.2 ± 3.62 | 20.6 ± 1.17 | 7.66 ± 0.68 | 3.2 | 64.2 | 1.167 | 54.1 | 1.5804 | 6.92 ± 0.52 | 3.6 | 9.15 ± 0.7 | 9.15 | 2.7 | 0.9 | 27.7 ± 5.45 | SI (selectivity index) PaCa-2 [4]: 1.2
CCN(CC)CCNC(=O)c1c(C)[nH]c(/C=C2\C(=O)Nc3ccc(F)cc32)c1C [Sunitinib, reference compound] |  |  |  |  |  |  |  |  |  |  |  |  |  |  |  |  |  |  |  |  | IC50 ([4]; MTT, 72 h, PaCa-2): 16.9 ± 0.95 µM

— paper PMC9380671, “Development of spiro-3-indolin-2-one containing compounds of antiproliferative and anti-SARS-CoV-2 properties” (Scientific Reports, 2022)
